Results reported in patent US10590454B2, “Methods of preventing and removing trisulfide bonds” (Biogen MA Inc., priority 2011, dated 2020).

Experiments:
[1] = tested on: cysteine degradation (release of hydrogen sulfide); test: Release of hydrogen sulfide from cysteine-containing medium with inhibitors of cysteine degradation; settings: cell-culture medium, inhibitor 17.7 mM (1:1 to cysteine), 24 hours
Procedure: In order to test the effect of cysteine degradation inhibitors on release of hydrogen sulfide in cell-culture medium, various inhibitors were added to the medium at the concentration of 17.7 mM, which represents a 1:1 ratio to the concentration of cysteine in the medium. Released hydrogen sulfide concentration was measured after 24 hours of incubation. Briefly, 50 ml of medium was incubated overnight in a closed 100 ml bottle. The headspace was therefore equal to the liquid volume of the container. A Jerome 631-X hydrogen sulfide detector was connected to a short piece of silicon tubing to minimize holdup volume in the instrument. The end of the tubing was inserted into the headspace of the medium-containing bottle, and the Jerome 631-X detector sampled the headspace immediately after opening the bottle.
The effect of pyruvate on release of hydrogen sulfide from cysteine degradation was further tested. The experiments were performed as described above in Example 9. Concentration of released hydrogen sulfide was measured after incubation from solutions containing 17.7 mM cysteine, plus 200 g/L glucose or subgroups of amino acids, in the absence or presence of pyruvate.
The effect of pyruvate on release of hydrogen sulfide from cysteine degradation was also tested in various cell-culture media, including feed liquid, IMDM and DMEM. All cysteine concentrations were normalized to that in the feed liquid. 17.7 mM pyruvate was added to the medium, which represents a 1:1 ratio of cysteine to pyruvate in the medium. The experiments were performed as described above for Example 9. […] Thus, pyruvate can reduce cysteine degradation and H2S release in a variety of compositions and decrease the number of trisulfide bonds.

[2] = Stability of trisulfides in vivo in rats after intraperitoneal injection; settings: rat, 100 mg/kg intraperitoneally, based on column recoveries
Procedure: The samples were incubated with 100 μL of the resin for 2 h at room temperature with mild agitation. The resin was then washed six times with 0.5 mL of PBS and six times with 0.5 mL of 25 mM sodium phosphate, 100 mM NaCl, pH 5.5, after which the bound antibody was eluted with 25 mM sodium phosphate, pH 2.8, 100-mM NaCl. […] Portions of the serum (750 μL for the 24-h point, and 1050 μL for the 72-h point) were subjected to IgSelect purification using 150 μL of IgSelect (protocol described above).

[3] = Heat induced fragmentation, non-reducing capillary electrophoresis (CE-SDS); type: physicochemical; settings: 70° C. for 3 minutes with iodoacetamide; compared to mAb-A-LT
Procedure: In these experiments, analysis of IgG1 mAb was performed by denaturing, non-reducing capillary electrophoresis in the presence of sodium dodecyl sulfate using an IgG Purity/Heterogeneity Assay Kit (# A10663) and ProteomeLab PA-800 instrument (Beckman Coulter). Samples (200 μg) were prepared by heating to 70° C. for 3 minutes in the presence of iodoacetamide, 1 mM SDS and a 10 kDa standard essentially as per manufacturer's instructions (Protocol A10424-AC) and separated for 35 min in a bare fused silica capillary with detection at 220 nm. The results, shown in FIGS. 1A and 1B show an increased level of fragmentation following sample preparation for non-reducing electrophoresis. The electrophoretic migration pattern of the single most abundant fragment was consistent with the loss of one light chain (L) from the intact mAb with the simultaneous generation of a species consisting of two heavy chains and one light chain (HHL fragment). This phenomenon was then used to rapidly screen for conditions that influence trisulfide content in IgG1 mAbs. In this screen, non-reducing electrophoresis was used as a rapid assay for detection of trisulfide bonds.

[4] = Differential scanning calorimetry; type: physicochemical; settings: preparations with low or high H-L trisulfide or treated with 1 mM cysteine; 25° C. to 100° C.
Procedure: The DSC was performed using a MicroCal capillary VP-DSC system (Northampton, Mass., USA) with Origin VPViewer2000 v2.0.64 software. Sample concentration was 0.5 mg/mL in 50 mM sodium phosphate, 100 mM NaCl, pH 6.0. Thermograms were generated by scanning temperature from 25° C. to 100° C. at a rate of 2° C./min.

| Molecule | Release of hydrogen sulfide [1] | other results |
| --- | --- | --- |
| O=CC(=O)O [glyoxylic acid] | functionally stopped release of hydrogen sulfide | – |
| mAb1: anti-LINGO-1 antibody Li81, human IgG1 produced in CHO cells | – | Level of mAb1 in the serum ([2]; after 24 h): 850 µg/mL; Level of mAb1 in the serum ([2]; after 72 h): 700 µg/mL; Sensitivity to heat treatment (fragmentation to HHL species) [3]: increased sensitivity to extreme heat treatment; Transition temperature profiles [4]: no differences in transition temperature profiles detected |
| COC(=O)C(C)=O [methyl pyruvate] | functionally stopped release of hydrogen sulfide | – |
| O=CC(O)CO (racemic) [DL-glyceraldehyde] | functionally stopped release of hydrogen sulfide | – |
| CCOC(=O)C(C)=O [ethyl pyruvate] | functionally stopped release of hydrogen sulfide | – |
